Where two headings read alike, the source gives them in different places.
Columns and labels:
[1] = Therapeutic drug monitoring of isavuconazole Ctrough and Cpeak in hospitalized patients; format: in vivo, human
Description: Isavuconazole treatment was started with a loading dose of 200 mg every 8 h for two days, followed by a maintenance dose of 200 mg daily administered orally or intravenously, at the physician’s discretion. Patients underwent TDM of isavuconazole by assessing plasma Ctrough, which was determined approximately five minutes before the scheduled daily dose, and, whenever possible, also plasma Cpeak, which was determined 2 h after oral administration or 0.5 h after a 1 h intravenous infusion. TDM was assessed firstly after at least 72 h from starting therapy and subsequently reassessed at the discretion of the attending physician.
Blood samples for isavuconazole TDM were immediately delivered to the Institute of Clinical Pharmacology, where they were centrifuged to obtain serum. Isavuconazole serum concentrations were estimated by means of a validated liquid chromatography–tandem mass spectrometry analytic method. Precision and accuracy were assessed by replicate analysis of quality control samples against calibration standards. Intra- and interassay coefficients of variation were always <10%. The LOQ was 0.11 mg/L, and the assay was linear in the range of 0.1–10 mg/L.

[2] = Population pharmacokinetic modeling (NPAG, Pmetrics); format: in vivo, human; conditions: for clearance / Vd / bioavailability: human, serum, 200 mg daily; for clearance / Vd: other: orally or intravenously; for clearance: read-out: CL, total body clearance (converted); for bioavailability: po, read-out: Fos, oral bioavailability
Description: Population pharmacokinetics were conducted using the nonparametric adaptive grid approach (NPAG) and the algebraic model solver included in the Pmetrics package (Version 1.5.0, Laboratory of Applied Pharmacokinetics and Bioinformatics, Los Angeles, CA, USA) of R [22]. One- and two-compartment models with first-order absorption and first-order elimination from the central compartment were developed. Maximum a posteriori (MAP)-Bayesian estimates of isavuconazole clearance (CL) and volume of distribution (V) were determined in each patient.
Influence of covariates was assessed by including the biologically plausible clinical covariates into the basic model. Covariate analysis was conducted by means of the Pmetrics function “PMstep” and by linear regression between the median MAP-Bayesian estimates of isavuconazole pharmacokinetic parameters and each tested covariate.
Model comparison was performed by calculating the objective function value (OFV) and the Akaike information criterion (AIC) value. An improvement between the two competitive models was considered statistically significant when the decrease in the OFV was at least 3.84 points. For both the population predictions and the individual predictions, model fit was assessed by evaluating the coefficient of determination of the linear regression of the observed versus predicted concentration plot. Internal model validation was performed by means of a visual predictive check (VPC) with n = 1000 simulations. The normalized prediction distribution errors (NPDE) were also calculated. The VPC plot compares the observed concentrations with model-predicted concentration-time profiles. A model is reliable when ≥95% of the observed concentrations reside within the 95% CI of the model prediction. Assay laboratory error was estimated by means of the interday variability assay data. A first-order polynomial regression was used between drug concentrations and the standard deviation of the observations (C0 = 0.006, C1 = 0.189). Extra process noise was captured with a gamma (G) model (G = 2).

invasive fungal disease = test: Clinical outcome at end of isavuconazole treatment; format: in vivo, human
Description: This was a monocentric, retrospective, observational study conducted among patients who were treated with isavuconazole because of IFD between September 2017 and November 2020 at the Azienda Sanitaria Universitaria Friuli Centrale of Udine, Italy.
(§1) The following demographic and clinical data were retrieved from each patient’s medical record: age, gender, weight, height, type and site of infection and microbiological isolate. Patient comedications, along with serum albumin, total bilirubin, ALT, AST and γ-GT concentrations, were recorded at each TDM assessment. Drug-induced liver injury was defined as mild, moderate, severe or fatal according to the EASL Clinical Practice Guidelines for drug-induced liver injury. Drug cotreatments were accurately reviewed by a clinical pharmacologist with the intent of assessing the eventual influence on isavuconazole clearance by CYP3A4 inhibitors and/or inducers. CYP3A4 inhibitors and/or inducers were classified as strong, moderate and mild according to the FDA [19] and to the DrugBank database. Patient outcome at end of therapy was defined as successful (in case of clinical, radiological and/or mycological resolution or improvement of infection) or failed according to [21].

[3] = Safety and liver enzyme monitoring during isavuconazole therapy; format: in vivo
Description: as §1

[4] = Mixed-effect linear regression of clinical variables associated with isavuconazole Ctrough; format: in vivo, human
Description: Data were presented as median and interquartile range (IQR) for continuous variables or as count and percentage for categorical variables in the descriptive statistics. Univariate and multivariate linear mixed-effect models (with a random effect to account for correlation among repeated measurements within the same subject) were performed to identify clinical independent predictors of isavuconazole Ctrough. All variables that were associated with a p ≤ 0.20 at univariate analysis were subsequently included in the multivariate model. All statistical and graphical analyses were performed with R version 3.4.4 (R Foundation for Statistical Computing, Vienna, Austria). Data were considered statistically significant when p < 0.05.

[5] = cited from earlier work
[6] = set-up: method as in PMID 26598096; conditions: cited from earlier work
A. fumigatus [7] = system: A. fumigatus; set-up: method as in PMID 25753636; conditions: EUCAST MIC method; associated with a 90% survival rate against disseminated aspergillosis by wild-type and azole-resistant A. fumigatus; cited from earlier work
A. fumigatus [8] = system: A. fumigatus; set-up: method as in earlier work; conditions: EUCAST; cited from earlier work
A. flavus = system: A. flavus; set-up: method as in earlier work; conditions: EUCAST; cited from earlier work
[9] = cited from earlier work; remark: listed apart in the source
[10] = Mean, final population pharmacokinetic model
[11] = Median, final population pharmacokinetic model

C[C@@H](c1nc(-c2ccc(C#N)cc2)cs1)[C@](O)(Cn1cncn1)c1cc(F)ccc1F [isavuconazole, Isavuconazole]
proportion of measured Ctrough <1.0 mg/L ([1]; 2 of 175 Ctrough): 1.1%
proportion of measured Ctrough >5.13 mg/L ([1]; 50 of 175 Ctrough): 28.6%
Cpeak ([1]; median of 24 Cpeak, patients n = 50, dose 200 mg): 4.67 mg/L
Ctrough ([1]; median of 175 Ctrough, patients n = 50, dose 200 mg): 3680 ng/mL
Ka, first-order transfer rate constant of absorption [2, 10]: 22.64 h⁻¹
Vp, volume of distribution of the peripheral compartment [2, 10]: 735.24 L
CL, total body clearance [2, 11]: 1.33 L/h
Ka, first-order transfer rate constant of absorption [2, 11]: 22.64 h⁻¹
Vp, volume of distribution of the peripheral compartment [2, 11]: 385.93 L
clearance [2, 10]: 25.3 mL/min
Vd ([2]; Mean, final population pharmacokinetic model, read-out: V, volume of distribution of the central compartment): 89.5 L
clearance [2, 11]: 25.3 mL/min
Vd ([2]; Median, final population pharmacokinetic model, read-out: V, volume of distribution of the central compartment): 103 L
Vd ([2]; population pharmacokinetic model, read-out: median volume of distribution): 489 L
bioavailability [2, 10]: 95%
bioavailability [2, 11]: 100%
interindividual variability on CL ([2]; population pharmacokinetic model): 64%
lack of significant improvement with isavuconazole treatment (invasive fungal disease; 3/47): 6.4%
Dead for other reasons (invasive fungal disease; 3/47, progression of underlying oncohematological disease): 6.4%
Treatment failure (invasive fungal disease; clinical outcome at end of treatment, Table 1 (12/47)): 25.5%
Successful treatment (invasive fungal disease; clinical outcome at end of treatment, patients who completed treatment (n = 47)): 68.1%
failure (invasive fungal disease; clinical outcome, text (9/47)): 19.2%
signs and/or symptoms of isavuconazole toxicity during therapy ([3]; 50 patients): No patient experienced signs and/or symptoms of isavuconazole toxicity during therapy
ALT in intercurrent mild hepatotoxicity ([3]; one patient, resolved spontaneously without isavuconazole withdrawal): up to 261 IU/L
alanine-aminotransferase (ALT), median (min–max) ([3]; patients on isavuconazole): 21.0 (3.0–261.0) UI/L
aspartate-aminotransferase (AST), median (min–max) ([3]; patients on isavuconazole): 20.0 (5.0–249.0) UI/L
gamma-glutamyltransferase (γ-GT), median (min–max) ([3]; patients on isavuconazole): 70.0 (12.0–642.0) IU/L
Unstandardized β-Coefficient (95% CI) for Ctrough ([4]; Multivariate Analysis, Cotreatment with CYP3A4 inhibitors): 2.154 (3.248–1.060)
Unstandardized β-Coefficient (95% CI) for Ctrough ([4]; Multivariate Analysis, Dose/kg daily (mg/kg)): 0.402 (0.819−0.016)
Unstandardized β-Coefficient (95% CI) for Ctrough ([4]; Multivariate Analysis, γ-GT (IU/L)): −0.0004 (0.002−0.002)
Unstandardized β-Coefficient (95% CI) for Ctrough ([4]; Univariate Analysis, ALT (IU/L)): −0.001 (0.007−0.009)
Unstandardized β-Coefficient (95% CI) for Ctrough ([4]; Univariate Analysis, AST (IU/L)): −0.008 (-0.002–0.004)
Unstandardized β-Coefficient (95% CI) for Ctrough ([4]; Univariate Analysis, Albumin (g/L)): 0.034 (0.087−0.019)
Unstandardized β-Coefficient (95% CI) for Ctrough ([4]; Univariate Analysis, Cotreatment with CYP3A4 inhibitors): 2.39 (3.337–1.443)
Unstandardized β-Coefficient (95% CI) for Ctrough ([4]; Univariate Analysis, Days from starting therapy (days)): 0.001 (0.007−0.005)
Unstandardized β-Coefficient (95% CI) for Ctrough ([4]; Univariate Analysis, Dose/kg daily (mg/kg)): 0.815 (1.164–0.466)
Unstandardized β-Coefficient (95% CI) for Ctrough ([4]; Univariate Analysis, Gender (male vs. female)): 0.099 (6.986−6.788)
Unstandardized β-Coefficient (95% CI) for Ctrough ([4]; Univariate Analysis, Total bilirubin (mg/dL)): −0.346 (0.034−0.726)
Unstandardized β-Coefficient (95% CI) for Ctrough ([4]; Univariate Analysis, Weight (kg)): −0.029 (0.006−0.064)
Unstandardized β-Coefficient (95% CI) for Ctrough ([4]; Univariate Analysis, γ-GT (IU/L)): 0.003 (0.005–0.001)
reduction in Ctrough ([4]; associated with patient age): 3.7%
increase in isavuconazole Ctrough ([4]; cotreatment with mild/moderate CYP3A4 inhibitors): more than 2 fold
dose up to which the pharmacokinetics are linear [5]: up to 600 mg daily
elimination half-life [5]: 80 to 130 h
plasma drug accumulation ratio between start and end of therapy ([5]; multiple-dose study, 32 healthy volunteers, IV and oral): 3.8–5.2
CL ([5]; observed in SOT patients): 4.28 L/h
interindividual variability on CL ([5]; reported by previous analysis): 43–63%
CL ([5]; reported in clinical trials): 2.2 to 2.5 L/h
plasma protein binding [6]: > 98%
AUC24 h/MIC pharmacodynamic threshold of efficacy (A. fumigatus [7]): > 33.4
clinical breakpoint (A. fumigatus [8]): 1 mg/L
clinical breakpoint (A. flavus): 1 mg/L
cut-off value for toxicity (Ctrough) ([9]; ROC analysis, mild adverse events): 5130 ng/mL
Median isavuconazole concentration on days when side effects occurred [9]: 6.65 mg/L
Median isavuconazole concentration when side effects were not present [9]: 4.09 mg/L
isavuconazole levels associated with hepatic veno-occlusive disease ([9]; in vivo): > 10 mg/L
linear increase of concentration for each day of treatment ([9]; linear mixed model, 264 Ctrough samples from 19 patients): 0.032 mg/L

Source: article PMC8708495, “Population Pharmacokinetics and Pharmacodynamic Target Attainment of Isavuconazole against Aspergillus fumigatus and Aspergillus flavus in Adult Patients with Invasive Fungal Diseases: Should Therapeutic Drug Monitoring for Isavuconazole Be Considered as Mandatory as for the Other Mold-Active …” (Pharmaceutics, 2021)
